How the values were obtained:
Experiment in all cases: relative viability (nuclei count vs DMSO), 5 days (fraction); higher = more cells survive
NCI-H727 = test system: NCI-H727
Summary of the method: (§1)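 Relative viability divides the nuclei count in treated wells by that in vehicle wells. Lung cancer cell lines were seeded in 1536-well plates, dosed by pin tool the next day, and fixed and stained after 5 days in one step with final 0.05% Triton X-100, 1% formaldehyde and 1 ug/ml Hoechst. Dosing was a single drug or a fixed anchor-drug dose plus five library-drug doses (not always all listed) in √10 steps, and values are medians of duplicate plates imaged at 4×.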

HOP-62 = test system: HOP-62
Summary of the method: as §1

NCI-H322M = test system: NCI-H322M
Summary of the method: as §1

EPLC-272H = test system: EPLC-272H
Summary of the method: as §1

NCI-H1993 = test system: NCI-H1993
Summary of the method: as §1

LXF-289 = test system: LXF-289
Summary of the method: as §1

H3255 = test system: H3255
Summary of the method: as §1

NCI-H1563 = test system: NCI-H1563
Summary of the method: as §1

NCI-H2347 = test system: NCI-H2347
Summary of the method: as §1

NCI-H2023 = test system: NCI-H2023
Summary of the method: as §1

PC-14 = test system: PC-14
Summary of the method: as §1

NCI-H1915 = test system: NCI-H1915
Summary of the method: as §1

NCI-H2009 = test system: NCI-H2009
Summary of the method: as §1

NCI-H2085 = test system: NCI-H2085
Summary of the method: as §1

NCI-H2126 = test system: NCI-H2126
Summary of the method: as §1

SK-LU-1 = test system: SK-LU-1
Summary of the method: as §1

LCLC-97TM1 = test system: LCLC-97TM1
Summary of the method: as §1

NCI-H661 = test system: NCI-H661
Summary of the method: as §1

NCI-H1650 = test system: NCI-H1650
Summary of the method: as §1

EMC-BAC-2 = test system: EMC-BAC-2
Summary of the method: as §1

SW 1573 = test system: SW 1573
Summary of the method: as §1

NCI-H647 = test system: NCI-H647
Summary of the method: as §1

## CC1(C)CCC(c2ccc(Cl)cc2)=C(CN2CCN(c3ccc(C(=O)NS(=O)(=O)c4ccc(N[C@H](CCN5CCOCC5)CSc5ccccc5)c(S(=O)(=O)C(F)(F)F)c4)cc3)CC2)C1 [Navitoclax] + CC(C)C[C@H](NC(=O)[C@H](Cc1ccccc1)NC(=O)c1cnccn1)B(O)O [Bortezomib] (partner 0.002 µM)
NCI-H727; first compound 0.005 µM
  relative viability: 0.898
NCI-H727; first compound 0.01581 µM
  relative viability: 0.888
NCI-H727; first compound 0.1581 µM
  relative viability: 1.05
NCI-H727; first compound 0.5 µM
  relative viability: 0.767
HOP-62; first compound 0.005 µM
  relative viability: 0.575
HOP-62; first compound 0.01581 µM
  relative viability: 0.818
HOP-62; first compound 0.05 µM
  relative viability: 0.82
HOP-62; first compound 0.1581 µM
  relative viability: 0.85
HOP-62; first compound 0.5 µM
  relative viability: 1.1
NCI-H322M; first compound 0.005 µM
  relative viability: 1.21
NCI-H322M; first compound 0.01581 µM
  relative viability: 1.33
NCI-H322M; first compound 0.05 µM
  relative viability: 1.38
NCI-H322M; first compound 0.1581 µM
  relative viability: 1.21
NCI-H322M; first compound 0.5 µM
  relative viability: 1.22
EPLC-272H; first compound 0.005 µM
  relative viability: 0.925
EPLC-272H; first compound 0.1581 µM
  relative viability: 0.988
EPLC-272H; first compound 0.5 µM
  relative viability: 0.887
NCI-H1993; first compound 0.005 µM
  relative viability: 1.11
NCI-H1993; first compound 0.01581 µM
  relative viability: 1.58
NCI-H1993; first compound 0.05 µM
  relative viability: 0.961
NCI-H1993; first compound 0.1581 µM
  relative viability: 0.958
NCI-H1993; first compound 0.5 µM
  relative viability: 1.06
LXF-289; first compound 0.005 µM
  relative viability: 0.989
LXF-289; first compound 0.01581 µM
  relative viability: 1.05
LXF-289; first compound 0.05 µM
  relative viability: 0.928
LXF-289; first compound 0.1581 µM
  relative viability: 0.967
LXF-289; first compound 0.5 µM
  relative viability: 0.959
H3255; first compound 0.005 µM
  relative viability: 0.849
H3255; first compound 0.01581 µM
  relative viability: 1.09
H3255; first compound 0.05 µM
  relative viability: 0.836
H3255; first compound 0.1581 µM
  relative viability: 0.692
H3255; first compound 0.5 µM
  relative viability: 0.632
NCI-H1563; first compound 0.005 µM
  relative viability: 0.83
NCI-H1563; first compound 0.01581 µM
  relative viability: 1
NCI-H1563; first compound 0.05 µM
  relative viability: 0.748
NCI-H1563; first compound 0.1581 µM
  relative viability: 1.05
NCI-H1563; first compound 0.5 µM
  relative viability: 1.24
NCI-H2347; first compound 0.005 µM
  relative viability: 1.71
NCI-H2347; first compound 0.05 µM
  relative viability: 0.812
NCI-H2347; first compound 0.1581 µM
  relative viability: 1.03
NCI-H2347; first compound 0.5 µM
  relative viability: 1.09
NCI-H2023; first compound 0.005 µM
  relative viability: 1.06
NCI-H2023; first compound 0.01581 µM
  relative viability: 1.18
NCI-H2023; first compound 0.05 µM
  relative viability: 0.857
NCI-H2023; first compound 0.1581 µM
  relative viability: 0.906
NCI-H2023; first compound 0.5 µM
  relative viability: 0.938
PC-14; first compound 0.005 µM
  relative viability: 0.876
PC-14; first compound 0.01581 µM
  relative viability: 1
PC-14; first compound 0.05 µM
  relative viability: 0.934
PC-14; first compound 0.1581 µM
  relative viability: 0.865
PC-14; first compound 0.5 µM
  relative viability: 0.86
NCI-H1915; first compound 0.005 µM
  relative viability: 0.969
NCI-H1915; first compound 0.01581 µM
  relative viability: 0.925
NCI-H1915; first compound 0.05 µM
  relative viability: 0.82
NCI-H1915; first compound 0.1581 µM
  relative viability: 0.865
NCI-H1915; first compound 0.5 µM
  relative viability: 0.929
NCI-H2009; first compound 0.005 µM
  relative viability: 0.958
NCI-H2009; first compound 0.01581 µM
  relative viability: 1.19
NCI-H2009; first compound 0.05 µM
  relative viability: 0.953
NCI-H2009; first compound 0.1581 µM
  relative viability: 0.979
NCI-H2009; first compound 0.5 µM
  relative viability: 1.02
NCI-H2085; first compound 0.005 µM
  relative viability: 0.977
NCI-H2085; first compound 0.01581 µM
  relative viability: 1.09
NCI-H2085; first compound 0.05 µM
  relative viability: 0.855
NCI-H2085; first compound 0.1581 µM
  relative viability: 1.15
NCI-H2085; first compound 0.5 µM
  relative viability: 0.978
NCI-H2126; first compound 0.005 µM
  relative viability: 1.08
NCI-H2126; first compound 0.01581 µM
  relative viability: 1.12
NCI-H2126; first compound 0.05 µM
  relative viability: 1.07
NCI-H2126; first compound 0.1581 µM
  relative viability: 1.12
NCI-H2126; first compound 0.5 µM
  relative viability: 1.15
SK-LU-1; first compound 0.005 µM
  relative viability: 1.19
SK-LU-1; first compound 0.01581 µM
  relative viability: 1.12
SK-LU-1; first compound 0.05 µM
  relative viability: 0.477
SK-LU-1; first compound 0.1581 µM
  relative viability: 1.09
SK-LU-1; first compound 0.5 µM
  relative viability: 0.961
LCLC-97TM1; first compound 0.005 µM
  relative viability: 0.696
LCLC-97TM1; first compound 0.01581 µM
  relative viability: 1.06
LCLC-97TM1; first compound 0.05 µM
  relative viability: 0.583
LCLC-97TM1; first compound 0.1581 µM
  relative viability: 0.6
LCLC-97TM1; first compound 0.5 µM
  relative viability: 0.513
NCI-H661; first compound 0.005 µM
  relative viability: 0.844
NCI-H661; first compound 0.01581 µM
  relative viability: 0.873
NCI-H661; first compound 0.05 µM
  relative viability: 0.785
NCI-H661; first compound 0.1581 µM
  relative viability: 0.827
NCI-H661; first compound 0.5 µM
  relative viability: 0.668
NCI-H1650; first compound 0.005 µM
  relative viability: 0.183
NCI-H1650; first compound 0.01581 µM
  relative viability: 0.213
NCI-H1650; first compound 0.05 µM
  relative viability: 0.165
NCI-H1650; first compound 0.1581 µM
  relative viability: 0.191
NCI-H1650; first compound 0.5 µM
  relative viability: 0.163
EMC-BAC-2; first compound 0.005 µM
  relative viability: 1.04
EMC-BAC-2; first compound 0.01581 µM
  relative viability: 1.19
EMC-BAC-2; first compound 0.05 µM
  relative viability: 1.01
EMC-BAC-2; first compound 0.1581 µM
  relative viability: 1.03
EMC-BAC-2; first compound 0.5 µM
  relative viability: 1.12
SW 1573; first compound 0.005 µM
  relative viability: 1.04
SW 1573; first compound 0.01581 µM
  relative viability: 1.24
SW 1573; first compound 0.05 µM
  relative viability: 0.895
SW 1573; first compound 0.1581 µM
  relative viability: 0.796
SW 1573; first compound 0.5 µM
  relative viability: 1.15
NCI-H647; first compound 0.005 µM
  relative viability: 0.686
NCI-H647; first compound 0.01581 µM
  relative viability: 1.22
NCI-H647; first compound 0.05 µM
  relative viability: 0.866
NCI-H647; first compound 0.1581 µM
  relative viability: 0.761
NCI-H647; first compound 0.5 µM
  relative viability: 0.863
